# Patent US20100190751A1, “NOVEL COMBINATION OF NERAMEXANE FOR TREATMENT OF NERORDEGENERATIE DISORDERS” (MERZ PHARMA GmbH & CO. KGaA, priority 2007, published 2010)
# Tests used:
# [1] = tested on: SOD1(G93A) transgenic mouse model of ALS; experiment: Motor performance in the running wheel, SOD1(G93A) ALS mouse model; type: in vivo; settings: for Disease Progression (Rev's per 12 hours/day) / Half Maximum Performance / Presymptomatic Performance (Rev's per 12 hours): both gender; for Half Maximum Performance, Difference: versus vehicle control 106.1; for Presymptomatic Performance, Difference (rp 12 hours): versus vehicle control 19,518; for Disease Progression, Difference: versus vehicle control −17.862
# Procedure: Drug treatment starts at day 45.
# Memantine is supplied by MERZ pharmaceuticals. […] Drugs are dissolved in drinking water. […] Memantine is administered twice a day subcutaneously.
# Consumption of drinking water is checked randomly.
# 4. Motor Performance in the running wheel
# [2] = tested on: SOD1(G93A) ALS-mouse model; settings: Wang et al. 2005; cited from earlier work
# [3] = tested on: SOD1(G93A) transgenic mouse model of ALS; settings: both gender; for Age of Disease Onset, Mean age / Age of First Paresis, Mean age / Disease Endstage - Survival, Mean age: treatment from day 45; for Age of Disease Onset, Mean age: riluzole 35 mg/kg day and neramexane (dosage adapted to gender, 50 male/150 female) in drinking water, memantine 20 mg/kg day s.c.; for Age of First Paresis, Mean age / Disease Endstage - Survival, Mean age: same doses as Table 1; for Age of Disease Onset, Difference compared to control: versus vehicle control mean 106.6; for Age of First Paresis, Difference compared to control: versus vehicle control mean 119.7; for Disease Endstage - Survival, Difference compared to control: versus vehicle control mean […]
SMILES,Disease Progression (Rev's per 12 hours/day) [1],Half Maximum Performance [1],Presymptomatic Performance (Rev's per 12 hours) [1],"Half Maximum Performance, Difference [1]","Presymptomatic Performance, Difference (rp 12 hours) [1]","Disease Progression, Difference [1]",Effects regarding disease progression and survival [2],"Age of Disease Onset, Median age [3]","Age of First Paresis, Median age [3]","Disease Endstage - Survival, Median age [3]","Age of Disease Onset, Mean age [3]","Age of First Paresis, Mean age [3]","Disease Endstage - Survival, Mean age [3]","Age of Disease Onset, Difference compared to control [3]","Age of First Paresis, Difference compared to control [3]","Disease Endstage - Survival, Difference compared to control [3]"
CC12CC3CC(C)(C1)CC(N)(C3)C2 [Memantine],−22.528 Rev's per 12 hours/day,110.5 days,"10,784 Rev's per 12 hours",4.4 days,"−8,734 rp 12 hours",−4.666,positive effects,107.5 days,123.0 days,134.0 days,108.5 days,123.7 days,134.4 days,1.9 days,4.0 days,5.1 days
"CC1(C)CC(C)(C)CC(C)(N)C1 [Neramexane, 1-amino-1,3,3,5,5-pentamethylcyclohexane]",−16.108 Rev's per 12 hours/day,109.2 days,"21,096 Rev's per 12 hours",3.1 days,"1,578 rp 12 hours",1.754,,107.0 days,124.0 days,135.0 days,107.8 days,123.7 days,135.1 days,1.2 days,4.0 days,5.8 days
"Nc1nc2ccc(OC(F)(F)F)cc2s1 [Riluzole, 2-amino-6-trifluromethoxybenzothiazole]",−14.015 Rev's per 12 hours/day,,"20,565 Rev's per 12 hours",,"1,047 rp 12 hours",3.847,,105.0 days,119.0 days,,106.3 days,120.0 days,,-0.3 days,0.3 days,
